How the values were obtained:
Type in all cases: in vivo
[1] = tested on: Diabrotica balteata (corn root worm); experiment: Example B1: Activity against Diabrotica balteata (corn root worm); settings: 96 h, application rate 200 ppm, maize sprouts sprayed, L2 larvae, 4 days after infestation, read-out: effect in at least one of the two categories (mortality or growth inhibition)
Experimental: Example B1: Activity Against Diabrotica Balteata (Corn Root Worm)
Maize sprouts placed onto an agar layer in 24-well microtiter plates were treated with aqueous test solutions prepared from 10,000 ppm DMSO stock solutions by spraying. After drying, the plates were infested with L2 larvae (6 to 10 per well). The samples were assessed for mortality and growth inhibition in comparison to untreated samples 4 days after infestation.

[2] = tested on: Euschistus heros (neotropical brown stink bug); experiment: Example B2: Activity against Euschistus heros (neotropical brown stink bug); settings: 120 h, application rate 200 ppm, soybean leaves sprayed, N2 nymphs, 5 days after infestation, read-out: effect in at least one of the two categories (mortality or growth inhibition)
Experimental: Example B2: Activity Against Euschistus heros (Neotropical Brown Stink Bug)
Soybean leaves on agar in 24-well microtiter plates were sprayed with aqueous test solutions prepared from 10,000 ppm DMSO stock solutions. After drying the leaves were infested with N2 nymphs. The samples were assessed for mortality and growth inhibition in comparison to untreated samples 5 days after infestation.

[3] = tested on: Myzus persicae (green peach aphid); experiment: Example B4: Activity against Myzus persicae (green peach aphid), feeding/contact activity; settings: foliar, 144 h, application rate 200 ppm, sunflower leaf discs sprayed, aphid population of mixed ages, 6 days after infestation
Experimental: Example B4: Activity Against Myzus persicae (Green Peach Aphid) Feeding/Contact Activity
Sunflower leaf discs were placed onto agar in a 24-well microtiter plate and sprayed with aqueous test solutions prepared from 10,000 ppm DMSO stock solutions. After drying, the leaf discs were infested with an aphid population of mixed ages. The samples were assessed for mortality 6 days after infestation.

[4] = tested on: Plutella xylostella (diamond back moth); experiment: Example B5: Activity against Plutella xylostella (diamond back moth); settings: 192 h, application rate 200 ppm, artificial diet treated by pipetting, eggs, 8 days after infestation, read-out: effect in at least one of the two categories (mortality or growth inhibition)
Experimental: Example B5: Activity Against Plutella xylostella (Diamond Back Moth)
24-well microtiter plates with artificial diet were treated with aqueous test solutions prepared from 10,000 ppm DMSO stock solutions by pipetting. After drying, Plutella eggs were pipetted through a plastic stencil onto a gel blotting paper and the plate was closed with it. The samples were assessed for mortality and growth inhibition in comparison to untreated samples 8 days after infestation. The following compounds gave an effect of at least 80% in at least one of the two categories (mortality or growth inhibition) at an application rate of 200 ppm: P1, P2, P4, P5, P6, P7, P9, P10, P11, P12, P13, P14, P15, P16, P17, P18.

[5] = tested on: Spodoptera littoralis (Egyptian cotton leaf worm); experiment: Example B6: Activity against Spodoptera littoralis (Egyptian cotton leaf worm); settings: foliar, 72 h, application rate 200 ppm, cotton leaf discs sprayed, L1 larvae, 3 days after infestation, read-out: control (mortality, anti-feeding effect or growth inhibition)
Experimental: Example B6: Activity Against Spodoptera littoralis (Egyptian Cotton Leaf Worm)
Cotton leaf discs were placed onto agar in 24-well microtiter plates and sprayed with aqueous test solutions prepared from 10,000 ppm DMSO stock solutions. After drying the leaf discs were infested with five L1 larvae. The samples were assessed for mortality, anti-feeding effect, and growth inhibition in comparison to untreated samples 3 days after infestation. Control of Spodoptera littoralis by a test sample is given when at least one of the categories mortality, anti-feedant effect, and growth inhibition is higher than the untreated sample.

[6] = tested on: Chilo suppressalis (striped rice stemborer); experiment: Example B8: Activity against Chilo suppressalis (striped rice stemborer); settings: 144 h, application rate 200 ppm, artificial diet treated by pipetting, L2 larvae, 6 days after infestation, read-out: control (mortality, anti-feeding effect or growth inhibition)
Experimental: Example B8: Activity Against Chilo suppressalis (Striped Rice Stemborer)
24-well microtiter plates with artificial diet were treated with aqueous test solutions prepared from 10,000 ppm DMSO stock solutions by pipetting. After drying, the plates were infested with L2 larvae (6-8 per well). The samples were assessed for mortality, anti-feeding effect, and growth inhibition in comparison to untreated samples 6 days after infestation. Control of Chilo suppressalis by a test sample is given when at least one of the categories mortality, anti-feedant effect, and growth inhibition is higher than the untreated sample.

[7] = tested on: Myzus persicae (green peach aphid); experiment: Example B9: Activity against Myzus persicae (green peach aphid), systemic activity; settings: 144 h, test rate 24 ppm, roots of infested pea seedlings placed into test solution, 6 days
Experimental: Example B9: Activity Against Myzus persicae (Green Peach Aphid). Systemic Activity
Roots of pea seedlings infested with an aphid population of mixed ages were placed directly into aqueous test solutions prepared from 10,000 DMSO stock solutions. The samples were assessed for mortality 6 days after placing seedlings into test solutions.

CCS(=O)(=O)c1c(N2Cc3ncc(C(F)(F)F)cc3C2=O)nc(-c2cnn(C3CC3)c2)n1C [Compound P2, 6-[2-(1-cyclopropylpyrazol-4-yl)-5-ethylsulfonyl-1-methyl-imidazol-4-yl]-3-(trifluoromethyl)-7H-pyrrolo[3,4-b]pyridin-5-one]
≥ 80%: mortality or growth inhibition at 200 ppm [1] | percent effect (mortality or growth inhibition) at 200 ppm [2] | mortality at 200 ppm [3] | effect (mortality or growth inhibition) at 200 ppm [4] | control at 200 ppm [5] | control at 200 ppm [6] | mortality at 24 ppm [7]

CCS(=O)(=O)c1c(N2Cc3ncc(C(F)(F)F)cc3C2=O)nc(C2CC(C3CC3)=NO2)n1C (stereo not drawn) [Compound P3, 6-[2-(3-cyclopropyl-4,5-dihydroisoxazol-5-yl)-5-ethylsulfonyl-1-methyl-imidazol-4-yl]-3-(trifluoromethyl)-7H-pyrrolo[3,4-b]pyridin-5-one]
≥ 80%: control at 200 ppm [6]

CCS(=O)(=O)c1c(N2Cc3ncc(C(F)(F)F)cc3C2=O)nc(-c2cnn(CC3(C#N)CC3)c2)n1C [Compound P4, 1-[[4-[5-ethylsulfonyl-1-methyl-4-[5-oxo-3-(trifluoromethyl)-7H-pyrrolo[3,4-b]pyridin-6-yl]imidazol-2-yl]pyrazol-1-yl]methyl]cyclopropane-carbonitrile]
≥ 80%: percent effect (mortality or growth inhibition) at 200 ppm [2] | mortality at 200 ppm [3] | effect (mortality or growth inhibition) at 200 ppm [4] | control at 200 ppm [6] | mortality at 24 ppm [7]

CCS(=O)(=O)c1c(N2Cc3ncc(C(F)(F)F)cc3C2=O)nc(-c2cnn(CC(F)F)c2)n1C [Compound P5, 6-[2-[1-(2,2-difluoroethyl)pyrazol-4-yl]-5-ethylsulfonyl-1-methyl-imidazol-4-yl]-3-(trifluoromethyl)-7H-pyrrolo[3,4-b]pyridin-5-one]
≥ 80%: percent effect (mortality or growth inhibition) at 200 ppm [2] | mortality at 200 ppm [3] | effect (mortality or growth inhibition) at 200 ppm [4] | control at 200 ppm [5] | control at 200 ppm [6] | mortality at 24 ppm [7]

CCS(=O)(=O)c1c(N2Cc3ncc(C(F)(F)F)cc3C2=O)nc(OCC(F)(F)F)n1C [Compound P6, 6-[5-ethylsulfonyl-1-methyl-2-(2,2,2-trifluoroethoxy)imidazol-4-yl]-3-(trifluoromethyl)-7H-pyrrolo[3,4-b]pyridin-5-one]
≥ 80%: mortality or growth inhibition at 200 ppm [1] | mortality at 200 ppm [3] | effect (mortality or growth inhibition) at 200 ppm [4] | control at 200 ppm [5] | control at 200 ppm [6] | mortality at 24 ppm [7]

CCS(=O)(=O)c1c(N2Cc3ccc(OC(F)(F)F)cc3C2=O)nc(-c2cncnc2)n1C [Compound P7, 2-(5-ethylsulfonyl-1-methyl-2-pyrimidin-5-yl-imidazol-4-yl)-6-(trifluoromethoxy)isoindolin-1-one]
≥ 80%: effect (mortality or growth inhibition) at 200 ppm [4] | control at 200 ppm [5] | control at 200 ppm [6]

CCS(=O)(=O)c1c(N2Cc3ncc(C(F)(F)F)cc3C2=O)nc(-c2cncnc2)n1C [Compound P8, 6-(5-ethylsulfonyl-1-methyl-2-pyrimidin-5-yl-imidazol-4-yl)-3-(trifluoromethyl)-7H-pyrrolo[3,4-b]pyridin-5-one]
≥ 80%: mortality at 24 ppm [7]

CCS(=O)(=O)c1c(N2Cc3ccc(OC(F)(F)F)cc3C2=O)nc(-c2ncccn2)n1C [Compound P11, 2-(5-ethylsulfonyl-1-methyl-2-pyrimidin-2-yl-imidazol-4-yl)-6-(trifluoromethoxy)isoindolin-1-one]
≥ 80%: mortality or growth inhibition at 200 ppm [1] | percent effect (mortality or growth inhibition) at 200 ppm [2] | mortality at 200 ppm [3] | effect (mortality or growth inhibition) at 200 ppm [4] | control at 200 ppm [6] | mortality at 24 ppm [7]

CCS(=O)(=O)c1c(N2Cc3ncc(C(F)(F)F)cc3C2=O)nc(-c2ncccn2)n1C [Compound P12, 6-(5-ethylsulfonyl-1-methyl-2-pyrimidin-2-yl-imidazol-4-yl)-3-(trifluoromethyl)-7H-pyrrolo[3,4-b]pyridin-5-one]
≥ 80%: mortality or growth inhibition at 200 ppm [1] | percent effect (mortality or growth inhibition) at 200 ppm [2] | mortality at 200 ppm [3] | effect (mortality or growth inhibition) at 200 ppm [4] | control at 200 ppm [6] | mortality at 24 ppm [7]

CCS(=O)(=O)c1c(N2Cc3ncc(C(F)(F)F)cc3C2=O)nc(-n2cc(C(F)(F)F)cn2)n1C [Compound P14, 6-[5-ethylsulfonyl-1-methyl-2-[4-(trifluoromethyl)pyrazol-1-yl]imidazol-4-yl]-3-(trifluoromethyl)-7H-pyrrolo[3,4-b]pyridin-5-one]
≥ 80%: mortality or growth inhibition at 200 ppm [1] | percent effect (mortality or growth inhibition) at 200 ppm [2] | mortality at 200 ppm [3] | effect (mortality or growth inhibition) at 200 ppm [4] | control at 200 ppm [5] | control at 200 ppm [6]

CCS(=O)(=O)c1c(N2Cc3ncc(C(F)(F)F)cc3C2=O)nc(-n2ccc(C3CC3)n2)n1C [Compound P15, 6-[2-(3-cyclopropylpyrazol-1-yl)-5-ethylsulfonyl-1-methyl-imidazol-4-yl]-3-(trifluoromethyl)-7H-pyrrolo[3,4-b]pyridin-5-one]
≥ 80%: mortality or growth inhibition at 200 ppm [1] | percent effect (mortality or growth inhibition) at 200 ppm [2] | mortality at 200 ppm [3] | effect (mortality or growth inhibition) at 200 ppm [4] | control at 200 ppm [5]

CCS(=O)(=O)c1c(N2Cc3ncc(C(F)(F)F)cc3C2=O)nc(-n2ccc(Cl)n2)n1C [Compound P16, 6-[2-(3-chloropyrazol-1-yl)-5-ethylsulfonyl-1-methyl-imidazol-4-yl]-3-(trifluoromethyl)-7H-pyrrolo[3,4-b]pyridin-5-one]
≥ 80%: mortality or growth inhibition at 200 ppm [1] | percent effect (mortality or growth inhibition) at 200 ppm [2] | mortality at 200 ppm [3] | effect (mortality or growth inhibition) at 200 ppm [4] | control at 200 ppm [5] | control at 200 ppm [6]

CCS(=O)(=O)c1c(N2Cc3ncc(C(F)(F)F)cc3C2=O)nc(-c2ccc(C3(C#N)CC3)cc2)n1C [Compound P18, 1-[4-[5-ethylsulfonyl-1-methyl-4-[5-oxo-3-(trifluoromethyl)-7H-pyrrolo[3,4-b]pyridin-6-yl]imidazol-2-yl]phenyl]cyclopropane-carbonitrile]
≥ 80%: mortality or growth inhibition at 200 ppm [1] | mortality at 200 ppm [3] | effect (mortality or growth inhibition) at 200 ppm [4] | control at 200 ppm [5] | control at 200 ppm [6]

— US20240018128A1, “PESTICIDALLY ACTIVE HETEROCYCLIC DERIVATIVES WITH SULFUR CONTAINING SUBSTITUENTS” (SYNGENTA CROP PROTECTION AG, priority 2020, published 2024)
